{"source": "paper PMC8025548", "about": "(Carbohydrate Polymers, 2021)", "key": {"[1]": {"experiment": "SBECD-assisted equilibrium solubilization of REM, assayed by HPLC", "type": "physicochemical", "settings": "for solubility at 24 h: pH 1.9"}, "[2]": {"settings": "ref Larson, 2019, cited from earlier work"}}, "note": "Where two headings read alike, the source gives them in different places."}
{"smiles": "CCC(CC)COC(=O)[C@H](C)N[P@](=O)(OC[C@H]1O[C@@](C#N)(c2ccc3c(N)ncnn23)[C@H](O)[C@@H]1O)Oc1ccccc1", "note": "[REM, Remdesivir]", "values": [{"measurement": "solubility at 24 h", "setting": "[1]; 20 % (w/w) aqueous SBECD solution", "result": "7600 to 9700", "unit": "µg/mL"}, {"measurement": "solubility at 24 h", "setting": "[1]; 20 % aqueous SBECD solution", "result": 8400, "unit": "µg/mL"}, {"measurement": "improvement of the aqueous solubility of REM", "setting": "[1]; with solubilizing carbohydrate (SBECD)", "result": 300, "unit": "fold"}, {"measurement": "dissolved REM", "setting": "[2]; 20 % (w/w) aqueous solution of PEG-400", "result": 3.3, "unit": "mg/mL"}, {"measurement": "dissolved REM", "setting": "[2]; 20 % (w/w) aqueous solution of SBECD", "result": 8.5, "unit": "mg/mL"}, {"measurement": "dissolved REM", "setting": "[2]; 20 % (w/w) aqueous solution of Tween-80", "result": 3.9, "unit": "mg/mL"}]}
